The test system of the experiment is 697B B-cell line, NF-kB luciferase reporter luminescence. As to the kind of experiment: inhibitors of B-cell NF-kB luciferase signal – 697B cells, luminescence, selectivity assay for T-cell antigen receptor NF-kB inhibitors, dose response (AID 489033).

By IC50 is commonly meant the concentration needed to halve the response being measured.

The source made the active and inactive calls. No rule for the calls is given here. A value given as a limit tells only on which side of the number the result lay.

Take `Cc1ccc(NC(=O)c2cc3ccccc3oc2=O)cc1S(=O)(=O)N(C)C`: the IC50 is under 0.16 µM. The result for `Cc1cc(C)c(CN2CCN(C(=O)Cn3cnc4c(OCc5ccccc5)ncnc43)CC2)c(C)c1` reads > 80 µM (inactive); that for `CCO[C@H]1OC(C(=O)NCc2nc3ccccc3[nH]2)=C[C@@H](C2CC2)[C@@H]1CCCO`, > 80 µM (inactive); that for `COc1ccc(CC(=O)Nc2nc(-c3ccc(F)c(F)c3)cs2)cc1OC`, 57.5 µM (inactive). Next, `CCOC(=O)c1[nH]c(C)c(C(=O)Nc2cc(OC)ccc2OC)c1C`: > 80 µM (inactive); `Cn1ncnc2c(=O)n(C)c(=O)nc1-2`: 2.85 µM. Next, `c1ccc2c(c1)CCN(c1ncnc3c1[nH]c1ccccc13)C2`: 16.8 µM. On to `CC[C@@]1(O)C(=O)OCc2c1cc1n(c2=O)Cc2cc3c(CN(C)C)c(O)ccc3nc2-1`, for which the concentration for half-maximal inhibition (IC50) is 0.96 µM. Next, `CCCC1=Nc2cc(C(=O)NCCCOCC)ccc2Sc2ccccc21`: > 80 µM (inactive); `CCOc1ccccc1C1CC(=O)Nc2cc3c(cc21)OCO3` (centres undefined): > 80 µM (inactive); `CCn1ncc(C2=NOC(C(=O)NCc3ccc(Cl)cc3)C2)c1C` (centres undefined): > 80 µM (inactive). Next, `COc1ccc(NC(=O)/C(Cl)=C(/Cl)S(=O)Cc2ccc(C)cc2)cn1` (centres undefined): under 0.16 µM; `Clc1cccc(Cl)c1OCCOCCNCc1ccccc1`: > 80 µM (inactive). For `Cc1cccc(N=Nc2ccc(O)c3ncccc23)c1`, the IC50 was 1.1 µM.

Regarding `CC(C)Oc1ccccc1C1CC(=O)Nc2cc3c(cc21)OCO3` (centres undefined), the IC50 was > 80 µM (inactive). The result for `COc1ccc(C(=O)NNC(=O)c2ccccn2)cc1` reads 5.2 µM.

With `O=C(Nc1nc(-c2ccccc2)cs1)c1ccc(N2CCOCC2)c([N+](=O)[O-])c1`, the IC50 is 6.64 µM. Next, `CCCc1cc(C(=O)Nc2cc(C)ccc2O)no1`: > 80 µM (inactive). In the case of `CCCCc1ccc(NC(=O)c2ccc(N(C)S(C)(=O)=O)cc2)cc1`, the IC50 was > 80 µM (inactive). Next, `CC(Nc1ncnc2ccccc12)c1ccccc1` (centres undefined): > 80 µM (inactive); `COC(=O)C1CN(C#N)N(c2ccc(Cl)cc2)C12c1ccccc1-c1ccccc12` (centres undefined): 3.58 µM.

For `O=C1C=CCC(/C=C/c2ccccc2)O1` (centres undefined), the IC50 is 2.18 µM. The result for `C=C(C)COc1ccc(-c2[nH]ncc2-c2ccc(OC)c(OC)c2)c(O)c1` reads 41.7 µM (inactive). Next, `CC1C/C(=C/c2ccncc2)C(=O)/C(=C/c2ccncc2)C1` (centres undefined): 8.39 µM; `O=C1c2c(O)ccc(O)c2C(=O)c2c(NCCNCCO)ccc(NCCNCCO)c21`: 4.2 µM; `Cc1ccc(/C=N/NC(=O)C2COc3ccccc3O2)s1` (centres undefined): 45.6 µM (inactive). For `O=[N+]([O-])c1ccc(Sc2ccc(Cl)c(Cl)c2)nc1`, the IC50 is 13.1 µM. Next, `O=C(NC(Nc1nc2ccc([N+](=O)[O-])cc2s1)(C(F)(F)F)C(F)(F)F)c1ccccc1`: 0.72 µM; `COc1cc(C2c3cc4c(cc3CC3COC(=O)C32)OCO4)cc(OC)c1OC` (centres undefined): > 80 µM (inactive). The result for `O=C(Nc1ccc(S(=O)(=O)N2CCCCC2)cc1)c1ccc(CN2CCOCC2)cc1` reads 51.2 µM (inactive); that for `CCOc1ccccc1C1CC(=O)Nc2cc(C)c(C)cc21` (centres undefined), > 80 µM (inactive). Next, `O[C@@H]1[C@@H](O)C=C2CCN3Cc4cc5c(cc4[C@H]1C23)OCO5` (some centres undefined): 3.28 µM; `Cc1cc(C)cc(NS(=O)(=O)c2ccc(-c3cnc(C4CC4)o3)cc2)c1`: 53.1 µM (inactive). With `Cc1ccc(C(=O)c2cc([N+](=O)[O-])ccc2N2CCCCC2)cc1C`, the IC50 was > 80 µM (inactive).

In the case of `CCCCOc1ccccc1C1CC(=O)NC2=C1C(=O)CCC2` (centres undefined), the IC50 was > 80 µM (inactive). Next, `Cn1cc(C(=O)N/N=C/c2c(O)ccc3ccccc23)ccc1=O`: > 80 µM (inactive); `COc1cc(OC)c(/C=C2\C(=O)Nc3ccccc32)c(OC)c1`: 62.6 µM (inactive); `CCC(=O)N1c2ccc(S(=O)(=O)N3CCN(c4ccc([N+](=O)[O-])cc4)CC3)cc2CC1C` (centres undefined): > 80 µM (inactive). `Cc1ccc(O)c(N=Nc2nccs2)c1`: the IC50 was 8.6 µM. Next, `CC(C)Nc1ccc(C(CC(N)=O)NC(=O)c2ccc(Br)cc2)cc1[N+](=O)[O-]` (centres undefined): > 80 µM (inactive); `COc1cc(/C=C/C(=O)c2ccc([N+](=O)[O-])o2)ccc1O`: 14.5 µM; `COc1cc(/C=C/c2ccc3cccc(O)c3n2)cc(OC)c1OC`: 0.63 µM. The result for `CC(=O)N(C)C1=C(N2CCOCC2)C(=O)c2ccccc2C1=O` reads 17.9 µM.

With `COc1cc(-c2noc(C)c2-c2ccc3[nH]ccc3c2)cc(OC)c1OC`, the IC50 was > 80 µM (inactive).

For the compound `O=C(c1ccccc1-c1ccccc1)N1CCN(c2ccccn2)CC1`, the IC50 is > 80 µM (inactive). The result for `CCCC(=O)NC(c1ccc(N(C)C)cc1)c1ccc2cccnc2c1O` (centres undefined) reads > 80 µM (inactive); that for `CC(C)(C)c1ccc(C(=O)Nc2ccc(Oc3cccnc3)nc2)cc1`, 3.28 µM. Next, `COC(=O)Nc1ccc(S(=O)(=O)N2CCCc3ccccc32)cc1`: > 80 µM (inactive). The result for `CCOc1ccc(-c2[nH]ncc2-c2ccc(OC)c(OC)c2)c(O)c1` reads > 80 µM (inactive).
